The record followed here is BindingDB's records for doi:10.1016/j.bmc.2019.115235 (Shandong University, 2020).

Test [1] addresses T1, Hypoxia-inducible factor 1-alpha (Homo sapiens, UniProt Q16665). In words: […] of HIF1 in human T47D cells.
Test [2] has as its target T1, Hypoxia-inducible factor 1-alpha. In words: […] of HIF1 in human T47D cells after 30 mins by luciferase reporter gene assay. For orientation: A reporter such as luciferase makes a cellular process visible.

T1 sequence (Q16665 whole entry): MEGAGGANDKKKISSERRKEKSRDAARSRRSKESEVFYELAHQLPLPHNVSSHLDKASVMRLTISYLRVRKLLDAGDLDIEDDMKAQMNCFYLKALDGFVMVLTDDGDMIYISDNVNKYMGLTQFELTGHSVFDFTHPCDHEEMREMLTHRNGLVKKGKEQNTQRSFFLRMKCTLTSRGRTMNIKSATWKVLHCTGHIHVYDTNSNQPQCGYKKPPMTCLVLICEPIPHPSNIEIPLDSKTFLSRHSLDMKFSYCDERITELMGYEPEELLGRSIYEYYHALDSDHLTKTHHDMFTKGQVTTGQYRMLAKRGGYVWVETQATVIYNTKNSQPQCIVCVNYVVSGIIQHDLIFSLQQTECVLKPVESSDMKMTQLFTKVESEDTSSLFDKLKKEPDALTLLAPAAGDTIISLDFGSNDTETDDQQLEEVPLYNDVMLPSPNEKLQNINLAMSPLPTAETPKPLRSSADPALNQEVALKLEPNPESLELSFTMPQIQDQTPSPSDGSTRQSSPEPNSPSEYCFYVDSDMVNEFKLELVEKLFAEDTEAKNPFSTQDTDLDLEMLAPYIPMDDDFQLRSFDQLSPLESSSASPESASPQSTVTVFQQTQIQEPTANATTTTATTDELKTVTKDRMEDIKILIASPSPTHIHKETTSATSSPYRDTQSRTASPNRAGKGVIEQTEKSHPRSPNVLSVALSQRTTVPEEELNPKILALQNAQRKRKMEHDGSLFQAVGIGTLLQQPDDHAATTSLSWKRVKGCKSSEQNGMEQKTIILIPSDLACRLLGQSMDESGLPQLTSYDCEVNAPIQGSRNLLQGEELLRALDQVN

`COc1ccc([C@@H](O)[C@@H](C)Oc2ccc([C@H]3O[C@H](c4ccc(OC)c(OC)c4)[C@H](C)[C@H]3C)cc2OC)cc1OC`: in test [1], the midpoint of inhibition, the IC50, lay at 20 nM. For `COc1ccc([C@@H](O)[C@@H](C)Oc2ccc([C@@H]3CC[C@H](c4ccc(O[C@H](C)[C@H](O)c5ccc(OC)c(OC)c5)c(OC)c4)C3)cc2OC)cc1OC`, the IC50 (usually the concentration that inhibits the measured activity by half) in test [2] came to 3 nM.
